From patent publication US10898475B2, “Bach1 inhibitors in combination with Nrf2 activators and pharmaceutical compositions thereof” (vTv Therapeutics LLC, priority 2014, dated 2021)
Where “and” joins values, the source holds several entries; their conditions need not be identical. Equal values may be shown once. Where a name gives a salt, the structure may show the parent alone. Blank lines part the entries; values can stand above or below the compound they belong to.

Test system: HMOX1 in Normal Human Lung Fibroblasts (NHLF)
Assay: HMOX1 Protein Expression (immunostaining, fold induction or % positive cells over DMSO)
Settings: for Hill slope of DMF dose response curves in Table 2: % Positive HMOX
[1] = Homo sapiens, Fibroblast, read-out: Fold Induction of HMOX

Fold Induction of HMOX (Cpd. 0.019 uM, DMF 0 uM): 1.29 fold
Fold Induction of HMOX (Cpd. 0.019 uM, DMF 0.03 uM): 1.10 fold
Fold Induction of HMOX (Cpd. 0.019 uM, DMF 0.1 uM): 1.15 fold
Fold Induction of HMOX (Cpd. 0.019 uM, DMF 0.3 uM): 1.24 fold
Fold Induction of HMOX (Cpd. 0.019 uM, DMF 1 uM): 1.68 fold
Fold Induction of HMOX (Cpd. 0.019 uM, DMF 3 uM): 2.86 fold
Fold Induction of HMOX (Cpd. 0.019 uM, DMF 10 uM): 5.75 fold
Fold Induction of HMOX (Cpd. 0.019 uM, DMF 30 uM): 4.65 fold
Fold Induction of HMOX (Cpd. 0.039 uM, DMF 0 uM): 1.37 fold
Fold Induction of HMOX (Cpd. 0.039 uM, DMF 0.03 uM): 1.28 fold
Fold Induction of HMOX (Cpd. 0.039 uM, DMF 0.1 uM): 1.35 fold
Fold Induction of HMOX (Cpd. 0.039 uM, DMF 0.3 uM): 1.61 fold
Fold Induction of HMOX (Cpd. 0.039 uM, DMF 1 uM): 2.10 fold
Fold Induction of HMOX (Cpd. 0.039 uM, DMF 3 uM): 3.01 fold
Fold Induction of HMOX (Cpd. 0.039 uM, DMF 10 uM): 5.13 fold
Fold Induction of HMOX (Cpd. 0.039 uM, DMF 30 uM): 4.90 fold
Fold Induction of HMOX (Cpd. 0.078 uM, DMF 0 uM): 1.59 fold
Fold Induction of HMOX (Cpd. 0.078 uM, DMF 0.03 uM): 1.37 fold
Fold Induction of HMOX (Cpd. 0.078 uM, DMF 0.1 uM): 1.48 fold
Fold Induction of HMOX (Cpd. 0.078 uM, DMF 0.3 uM): 1.73 fold
Fold Induction of HMOX (Cpd. 0.078 uM, DMF 1 uM): 2.53 fold
Fold Induction of HMOX (Cpd. 0.078 uM, DMF 3 uM): 4.33 fold
Fold Induction of HMOX (Cpd. 0.078 uM, DMF 10 uM): 6.46 fold
Fold Induction of HMOX (Cpd. 0.078 uM, DMF 30 uM): 6.18 fold
Fold Induction of HMOX (Cpd. 0.156 uM, DMF 0 uM): 2.66 fold
Fold Induction of HMOX (Cpd. 0.156 uM, DMF 0.03 uM): 1.99 fold
Fold Induction of HMOX (Cpd. 0.156 uM, DMF 0.1 uM): 2.54 fold
Fold Induction of HMOX (Cpd. 0.156 uM, DMF 0.3 uM): 3.06 fold
Fold Induction of HMOX (Cpd. 0.156 uM, DMF 1 uM): 4.08 fold
Fold Induction of HMOX (Cpd. 0.156 uM, DMF 3 uM): 4.57 fold
Fold Induction of HMOX (Cpd. 0.156 uM, DMF 10 uM): 6.55 fold
Fold Induction of HMOX (Cpd. 0.156 uM, DMF 30 uM): 5.49 fold
SMILES: CN(C)C(=O)CNC(=O)c1ccc2c(c1)nc(Nc1nc3ccc(C(F)(F)F)cc3s1)n2C [HPP-C, 1-Methyl-2-(6-trifluoromethyl-benzothiazol-2-ylamino)-1H-benzimidazole-5-carboxylic acid dimethylcarbamoylmethyl-amide]
Hill slope of DMF dose response curves in Table 2 (Bach1 Inhibitor Conc. 0.019 uM): 2.00
Hill slope of DMF dose response curves in Table 2 (Bach1 Inhibitor Conc. 0.039 uM): 1.80
Hill slope of DMF dose response curves in Table 2 (Bach1 Inhibitor Conc. 0.078 uM): 1.79
Hill slope of DMF dose response curves in Table 2 (Bach1 Inhibitor Conc. 0.156 uM): 0.83
% Cells Positive HMOX (Cpd. 0.019 uM, DMF 0 uM): 3.60%
% Cells Positive HMOX (Cpd. 0.019 uM, DMF 0.03 uM): 1.18%
% Cells Positive HMOX (Cpd. 0.019 uM, DMF 0.1 uM): 2.37%
% Cells Positive HMOX (Cpd. 0.019 uM, DMF 0.3 uM): 6.49%
% Cells Positive HMOX (Cpd. 0.019 uM, DMF 1 uM): 10.18%
% Cells Positive HMOX (Cpd. 0.019 uM, DMF 3 uM): 51.54%
% Cells Positive HMOX (Cpd. 0.019 uM, DMF 10 uM): 94.22%
% Cells Positive HMOX (Cpd. 0.019 uM, DMF 30 uM): 84.20%
% Cells Positive HMOX (Cpd. 0.039 uM, DMF 0 uM): 2.31%
% Cells Positive HMOX (Cpd. 0.039 uM, DMF 0.03 uM): 5.74%
% Cells Positive HMOX (Cpd. 0.039 uM, DMF 0.1 uM): 6.82%
% Cells Positive HMOX (Cpd. 0.039 uM, DMF 0.3 uM): 12.76%
% Cells Positive HMOX (Cpd. 0.039 uM, DMF 1 uM): 23.54%
% Cells Positive HMOX (Cpd. 0.039 uM, DMF 3 uM): 68.03%
% Cells Positive HMOX (Cpd. 0.039 uM, DMF 10 uM): 94.66%
% Cells Positive HMOX (Cpd. 0.039 uM, DMF 30 uM): 90.40%
% Cells Positive HMOX (Cpd. 0.078 uM, DMF 0 uM): 7.12%
% Cells Positive HMOX (Cpd. 0.078 uM, DMF 0.03 uM): 5.99%
% Cells Positive HMOX (Cpd. 0.078 uM, DMF 0.1 uM): 8.24%
% Cells Positive HMOX (Cpd. 0.078 uM, DMF 0.3 uM): 16.20%
% Cells Positive HMOX (Cpd. 0.078 uM, DMF 1 uM): 37.74%
% Cells Positive HMOX (Cpd. 0.078 uM, DMF 3 uM): 81.81%
% Cells Positive HMOX (Cpd. 0.078 uM, DMF 10 uM): 97.16%
% Cells Positive HMOX (Cpd. 0.078 uM, DMF 30 uM): 96.15%
% Cells Positive HMOX (Cpd. 0.156 uM, DMF 0 uM): 28.56%
% Cells Positive HMOX (Cpd. 0.156 uM, DMF 0.03 uM): 22.08%
% Cells Positive HMOX (Cpd. 0.156 uM, DMF 0.1 uM): 33.12%
% Cells Positive HMOX (Cpd. 0.156 uM, DMF 0.3 uM): 49.95%
% Cells Positive HMOX (Cpd. 0.156 uM, DMF 1 uM): 66.67%
% Cells Positive HMOX (Cpd. 0.156 uM, DMF 3 uM): 88.98%
% Cells Positive HMOX (Cpd. 0.156 uM, DMF 10 uM): 100.00%
% Cells Positive HMOX (Cpd. 0.156 uM, DMF 30 uM): 84.03%
combination effect in terms of the % HMOX positive cells (combination with DMF at concentrations below their maximum effect (Table 2)): additive or greater than additive
change of Hill slope of the DMF dose response curve (FIG. 5) (upon increasing amounts of the Bach1 Inhibitor): reduced

SMILES: COC(=O)/C=C/C(=O)OC [DMF, dimethyl fumarate, reference compound]
Hill slope of DMF dose response curves in Table 2 (Bach1 Inhibitor Conc. 0 uM): 1.25 and 1.26
% Cells Positive HMOX (Cpd. 0 uM, DMF 0.03 uM): 1.71%
% Cells Positive HMOX (Cpd. 0 uM, DMF 0.1 uM): 1.21%
% Cells Positive HMOX (Cpd. 0 uM, DMF 0.3 uM): 2.47%
% Cells Positive HMOX (Cpd. 0 uM, DMF 1 uM): 4.38%
% Cells Positive HMOX (Cpd. 0 uM, DMF 3 uM): 41.58%
% Cells Positive HMOX (Cpd. 0 uM, DMF 10 uM): 74.35%
% Cells Positive HMOX (Cpd. 0 uM, DMF 30 uM): 84.56%
fold induction at 0.03 µM [1]: 1.04
fold induction at 0.1 µM [1]: 1.06
fold induction at 0.3 µM [1]: 1.14
fold induction at 1 µM [1]: 1.39
fold induction at 3 µM [1]: 2.76
fold induction at 10 µM [1]: 4.45
fold induction at 30 µM [1]: 6.19
